By EC50 is commonly meant the concentration that produces a half-maximal response. A higher EC50 goes with a need for much substance. The CC50 is the concentration giving 50% cytotoxicity. Read a high CC50 as better tolerance by the cells.

For assay [1], the system named is C8166. As to the kind of experiment: Compound was evaluated for inhibitory activity against HIV-1 infected C8166 cells. Format: functional, cell-based. Conditions: Homo sapiens.
Assay [2] concerns C8166. As to the kind of experiment: Concentration which reduces the viability of uninfected C8166 cells by 50%. Particulars: Homo sapiens. Format: functional.
Assay [3] is described as follows: Ratio of CC50 to EC50 against HIV-1/C8166 cells was evaluated. The assay is classed as functional.

The compound `Cc1cn(C2CC(N=[N+]=[N-])C(CN)O2)c(=O)[nH]c1=O` (centres undefined) registered an EC50 in assay [1] of 40 µM. For the same compound, the CC50 in assay [2] is > 1000 µM. Also, the Selectivity in assay [3] was >25.
The like results for `Cc1cn2c(nc1=O)OC1CC2OC1CN1C(=O)c2ccccc2C1=O` (centres undefined) were, in that order, 400 µM, > 1000 µM and >2.5.
The like results for `Cc1cn(C2CC(N=[N+]=[N-])C(CN3C(=O)c4ccccc4C3=O)O2)c(=O)[nH]c1=O` (centres undefined) were, in that order, 100 µM, 1000 µM and 10.
As to `Cc1cn([C@H]2C[C@H](N=[N+]=[N-])[C@@H](CO)O2)c(=O)[nH]c1=O` [ZIDOVUDINE], the CC50 in assay [2] was > 1000 µM. Moreover, in assay [3], the Selectivity came to 62500.
Regarding `Cc1cn(C2CC(N=[N+]=[N-])C(CNP(=O)(OCC(Cl)(Cl)Cl)OCC(Cl)(Cl)Cl)O2)c(=O)[nH]c1=O` (centres undefined), in assay [1], a half-maximal effect (EC50) was put at 30 µM. The same compound showed a CC50 in assay [2] of 100 µM. Besides, the Selectivity in assay [3] is recorded as 3.3.

Values taken from ChEMBL document CHEMBL1129197, “A rapid synthesis of some 5-amino- nucleosides and nucleotides as potential antiviral compounds” (Bioorg Med Chem Lett, 1996).
